Tested on: rabbits
Assay: pyrogenic effect test on rabbits (Pharmacopee Francaise, 9th edition, II-235)
Format: in vivo

Compound: CC(=O)N[C@H]1C(O)O[C@H](CO)[C@@H](O)[C@@H]1O[C@H](C)C(=O)N[C@@H](C)C(=O)N[C@H](CCC(N)=O)C(N)=O (stereo partly drawn) [Mur-NAc-L-Ala-D-Glu(NH2)--NH2, diamide of the 2-(2-acetamido-2-deoxy-3-O-D-glucopyranosyl)-D-propionyl-L-alanyl-D-glutamic acid]
- increase of temperature (2 mg/kg, sub-cutaneously and intravenously): did not induce any increase of temperature
- pyrogenic effect (Pharmacopee Francaise protocol): fully devoid of any pyrogenic effect

Reference: patent US4220637A (Agence Nationale de Valorisation de la Recherche, priority 1976, dated 1980)
